Laboratory results: ChEMBL document CHEMBL1201862, “PubChem BioAssay data set” (2004)
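Results reflect a 48-hour exposure of cells in 96-well plates to compound at five concentrations. GI50 = concentration required for 50% inhibition of growth.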 Activity calls are given as the source filed them. No stated cut-off is given here; in the data, active = GI50 up to about 1.1 µM and inactive = higher.

Legend:
Experiment in all cases: growth of human tumour cells (NCI), 48 h
[1] = test system: BT-549
[2] = test system: COLO 205
[3] = test system: EKVX
[4] = test system: HOP-92
[5] = test system: K562
[6] = test system: KM12
[7] = test system: M14
[8] = test system: NCI-H23
[9] = test system: OVCAR-4
[10] = test system: OVCAR-5
[11] = test system: PC-3
[12] = test system: RPMI-8226
[13] = test system: RXF 393
[14] = test system: SF-268
[15] = test system: SK-MEL-2
[16] = test system: SNB-19
[17] = test system: SNB-75
[18] = test system: UACC-257
[19] = test system: UO-31
[20] = test system: SF-539

Row | Compound | GI50 [1] | GI50 [2] | GI50 [3] | GI50 [4] | GI50 [5] | GI50 [6] | GI50 [7] | GI50 [8] | GI50 [9] | GI50 [10] | GI50 [11] | GI50 [12] | GI50 [13] | GI50 [14] | GI50 [15] | GI50 [16] | GI50 [17] | GI50 [18] | GI50 [19] | GI50 [20]
1 | COc1cc(C2SC(=N)Nc3c2c(C)nn3C(=O)c2ccccc2O)ccc1O (stereo unspecified) | > 2.63 µM (inactive) | > 5.55 µM (inactive) | > 2.63 µM (inactive) | > 10 µM (inactive) | 1.46 µM (inactive) | > 2.13 µM (inactive) | > 2.85 µM (inactive) | > 2.3 µM (inactive) | > 2.1 µM (inactive) | > 5.53 µM (inactive) | > 4.03 µM (inactive) | > 2.09 µM (inactive) | 1.52 µM (inactive) | > 3.05 µM (inactive) | > 2.86 µM (inactive) | > 2.39 µM (inactive) | 1.04 µM (active) | 0.94 µM (active) | 9.31 µM (inactive) | 
2 | COC1=CC(=O)O/C1=C(\OC)C1OC1c1ccccc1 (stereo unspecified) | > 100 µM (inactive) | > 100 µM (inactive) | > 100 µM (inactive) | > 100 µM (inactive) |  | > 100 µM (inactive) | > 100 µM (inactive) | > 100 µM (inactive) | > 100 µM (inactive) | > 100 µM (inactive) | > 100 µM (inactive) | > 100 µM (inactive) | > 100 µM (inactive) | > 100 µM (inactive) | > 100 µM (inactive) | > 100 µM (inactive) |  | > 100 µM (inactive) | > 100 µM (inactive) | > 100 µM (inactive)
3 | C/C(=C\Cc1ccc(F)cc1)CCCCCC/C(C)=C/Cc1ccc(F)cc1 | 28.6 µM (inactive) | 16.4 µM (inactive) | 14.9 µM (inactive) | 10.2 µM (inactive) | 5.3 µM (inactive) | 2.25 µM (inactive) | 17.4 µM (inactive) | 10.8 µM (inactive) | 16.3 µM (inactive) | 16.2 µM (inactive) | 15.8 µM (inactive) |  | 20.7 µM (inactive) | 19.5 µM (inactive) | 16.9 µM (inactive) | 32.9 µM (inactive) | 18.7 µM (inactive) | 18.1 µM (inactive) | 10.7 µM (inactive) | 16.7 µM (inactive)
4 | O=C1/C(=C/c2ccc(Cl)cc2)N=C(c2ccccc2)N1c1nc2ccc(Sc3ccccc3)cc2[nH]1 | 21.7 µM (inactive) | 19.7 µM (inactive) | 36.3 µM (inactive) | 45.9 µM (inactive) | 17.5 µM (inactive) | 20.7 µM (inactive) | 16.3 µM (inactive) | 30.1 µM (inactive) | 34.7 µM (inactive) | 25.6 µM (inactive) | 30.6 µM (inactive) | 19.7 µM (inactive) | 26.3 µM (inactive) | 36.3 µM (inactive) | 15.6 µM (inactive) | 37.6 µM (inactive) | 15.8 µM (inactive) | 22.3 µM (inactive) | 34.8 µM (inactive) | 
5 | CC1(C)CC(=O)C(=CN2C(=O)CNC2=S)C(=O)C1 | > 100 µM (inactive) | > 100 µM (inactive) | > 100 µM (inactive) | > 100 µM (inactive) |  | > 100 µM (inactive) | > 100 µM (inactive) | > 100 µM (inactive) | > 100 µM (inactive) | > 100 µM (inactive) | > 100 µM (inactive) |  | 85.9 µM (inactive) | > 100 µM (inactive) | > 100 µM (inactive) | > 100 µM (inactive) | > 100 µM (inactive) | > 100 µM (inactive) | > 100 µM (inactive) | > 100 µM (inactive)
6 | COC(=O)[C@]12C3=C(O)C(=O)C[C@H]1OC[C@H]2C=CC3 | > 100 µM (inactive) | > 100 µM (inactive) | > 100 µM (inactive) | > 100 µM (inactive) | 64 µM (inactive) | > 100 µM (inactive) | > 100 µM (inactive) | > 100 µM (inactive) | > 100 µM (inactive) | > 100 µM (inactive) | > 100 µM (inactive) | > 100 µM (inactive) | > 100 µM (inactive) | > 100 µM (inactive) | > 100 µM (inactive) | > 100 µM (inactive) | > 100 µM (inactive) | > 100 µM (inactive) | > 100 µM (inactive) | 
7 | O=[N+]([O-])c1cccc(/N=N/c2c(O)c(S(=O)(=O)O)cc3cc(S(=O)(=O)O)ccc23)c1 | > 100 µM (inactive) | > 100 µM (inactive) | > 100 µM (inactive) | > 100 µM (inactive) | > 100 µM (inactive) | > 100 µM (inactive) | > 100 µM (inactive) | > 100 µM (inactive) | > 100 µM (inactive) | > 100 µM (inactive) | > 100 µM (inactive) |  | > 100 µM (inactive) | > 100 µM (inactive) | > 100 µM (inactive) | > 100 µM (inactive) | > 100 µM (inactive) | > 100 µM (inactive) | > 100 µM (inactive) | > 100 µM (inactive)
